# Assays:
# [1] = 6-month repeated dose oral toxicity study with 3-month recovery in rats: body weight; assay type: in vivo; details: for Body weight gain (in words) / Body weight (in words): p<0.05-0.001; for Body weight after cessation of treatment (in words): recovery period; for Decreases in body weight gain at the end of the treatment period: conclusion over dose levels
# Experimental: (§1) A 6-month repeated dose oral toxicity study with 3-month recovery was carried out in rats for R228060 (Formula Ib). Body weight and food consumption were monitored throughout the study.
# [2] = 6-month repeated dose oral toxicity study in rats: food consumption; assay type: in vivo
# Experimental: as §1
# [3] = 52-week repeated dose oral toxicity study with 13-week recovery in beagle dogs: body weight; assay type: in vivo; details: for Body weight variation during the treatment-free period only (value in brackets, Table 1): Day 455
# Experimental: (§2) A 52-week repeated dose oral toxicity study with 13-week recovery was carried out in beagle dogs for R228060 (Formula Ib). Body weight and food consumption were monitored throughout the study (see Table 1).
# [4] = 52-week repeated dose oral toxicity study in beagle dogs: food consumption; assay type: in vivo
# Experimental: as §2
# [5] = 6-week randomized, double blind, active and placebo-controlled study in adult subjects with major depressive disorder: body weight; assay type: in vivo, Humans; details: for Mean weight loss / Subjects with weight Decrease ≥7% / Subjects with weight Increase <7% / Subjects with weight Increase ≥7% / Subjects with weight No change/decrease <7% / Weight, Change from Baseline, Mean / Weight, Change from Baseline, Median: baseline to endpoint; for Weight, End point, Mean / Weight, End point, Median: 6-week study
# Experimental: A 6-week randomized, double blind, parallel group, active and placebo-controlled study was carried out to assess the efficacy of R228060 in adult subjects with major depressive disorder (MDD). Body weight was monitored throughout the study.
# [6] = nonclinical studies in mice, rats, and dogs: body weight and food consumption; assay type: in vivo
# [7] = classic rat self-administration model
# [8] = female rats, 600/450 mg HCl-salt/kg
# [9] = male rats, 600/450 mg HCl-salt/kg
smiles,measurement,setting,value
"NC(=O)OC[C@H](N)Cc1ccccc1 [Formula R228060, (R)-(beta-amino-benzenepropyl) carbamate]",Body weight and body weight gain (in words),"[1]; female rats, 35 mg HCl-salt/kg body weight/day oral for 6 consecutive months",did not adversely affect body weight and body weight gain
same,Body weight gain decreased compared to the control group,"[1]; female rats, 300 mg HCl-salt/kg body weight/day oral, week 13",15%
same,Body weight gain decreased compared to the control group,"[1]; female rats, 300 mg HCl-salt/kg body weight/day oral, week 26",23%
same,Body weight gain (in words),"[1]; female rats, 300 mg HCl-salt/kg body weight/day, especially towards end of dosing period",moderate to pronounced decrease
same,Body weight (in words),"[1]; female rats, 300 mg HCl-salt/kg body weight/day",moderately decreased body weight
same,Remaining body weight difference at the end of the recovery period compared to control animals (in words),[1]; [8],only slightly lower
same,Body weight gain decreased,"[1]; female rats, 600/450 mg HCl-salt/kg body weight/day oral, week 13",18%
same,Body weight gain decreased,"[1]; female rats, 600/450 mg HCl-salt/kg body weight/day oral, week 26",21%
same,Body weight gain (in words),"[1]; female rats, 600/450 mg HCl-salt/kg body weight/day, from first week of dosing",moderate to pronounced decrease in body weight gain
same,Body weight (in words),"[1]; female rats, 600/450 mg HCl-salt/kg body weight/day",moderately decreased body weight
same,Body weight after cessation of treatment (in words),[1]; [8],partial regain of their normal body weight
same,Decreases in body weight gain at the end of the treatment period,[1]; female rats,≤ 21%
same,Body weight gain decreased,"[1]; male rats, 35 mg HCl-salt/kg body weight/day oral, week 13, vs control",6%
same,Body weight gain decreased,"[1]; male rats, 35 mg HCl-salt/kg body weight/day oral, week 26, vs control",5%
same,Body weight and weight gain (in words),"[1]; male rats, 35 mg HCl-salt/kg body weight/day, significant weeks 8-12 (gain) and 10-12 (weight), p<0.05",slightly lower compared to control rats
same,Body weight gain decreased,"[1]; male rats, 300 mg HCl-salt/kg body weight/day oral, week 13",27%
same,Body weight gain decreased,"[1]; male rats, 300 mg HCl-salt/kg body weight/day oral, week 26",24%
same,Body weight and body weight gain (in words),"[1]; male rats, 300 mg HCl-salt/kg body weight/day, from first week of dosing, p<0.001",pronounced decrease in body weight and body weight gain
same,Body weight at the end of the three month recovery period compared to control animals (in words),[1]; [9],still moderately lower
same,Body weight gain decreased,"[1]; male rats, 600/450 mg HCl-salt/kg body weight/day oral, week 13",33%
same,Body weight gain decreased,"[1]; male rats, 600/450 mg HCl-salt/kg body weight/day oral, week 26",32%
same,Body weight and body weight gain (in words),"[1]; male rats, 600/450 mg HCl-salt/kg body weight/day, from week 1 onwards, p<0.001",pronounced decrease in body weight and body weight gain
same,Body weight after cessation of treatment (in words),[1]; [9],partial regain of their normal (control) body weight
same,Decreases in body weight gain at the end of the treatment period,[1]; male rats,up to 32%
same,Body weights and body weight gains (conclusion in words),"[1]; rats, starting at 35 mg HCl-salt/kg body weight/day for males and 300 for females",dose-related decrease
same,Statistically significant increases in food consumption (assessment in words),"[2]; female rats, 35, 300 and 600/450 mg HCl-salt/kg body weight level",toxicologically irrelevant
same,"Food consumption (significance, in words)","[2]; rats, 300 and 600/450 mg HCl-salt/kg body weight level",statistically significant decreases
same,Food consumption (in words),"[2]; rats, both sexes, first weeks of dosing, starting at 35 mg HCl-salt/kg body weight/day for males and 300 for females",dose-related decrease in food consumption
same,Body weight change (Table 1),"[3]; dogs, 10 mg/kg bw/day, females, Day 4",−6%
same,Body weight change (Table 1),"[3]; dogs, 10 mg/kg bw/day, females, Day 21",−2%
same,Body weight change (Table 1),"[3]; dogs, 10 mg/kg bw/day, females, Day 182",+26%
same,Body weight change (Table 1),"[3]; dogs, 10 mg/kg bw/day, females, Day 364",+25%
same,Body weight change (Table 1),"[3]; dogs, 10 mg/kg bw/day, males, Day 4",−1%
same,Body weight change (Table 1),"[3]; dogs, 10 mg/kg bw/day, males, Day 21",0%
same,Body weight change (Table 1),"[3]; dogs, 10 mg/kg bw/day, males, Day 182",+22%
same,Body weight change (Table 1),"[3]; dogs, 10 mg/kg bw/day, males, Day 364",+32%
same,Body weight change (Table 1),"[3]; dogs, 25 mg/kg bw/day, females, Day 4",−7%
same,Body weight change (Table 1),"[3]; dogs, 25 mg/kg bw/day, females, Day 21",−4%
same,Body weight change (Table 1),"[3]; dogs, 25 mg/kg bw/day, females, Day 182",+16%
same,Body weight change (Table 1),"[3]; dogs, 25 mg/kg bw/day, females, Day 364",+26%
same,Body weight change (Table 1),"[3]; dogs, 25 mg/kg bw/day, males, Day 4",−4%
same,Body weight change (Table 1),"[3]; dogs, 25 mg/kg bw/day, males, Day 21",−4%
same,Body weight change (Table 1),"[3]; dogs, 25 mg/kg bw/day, males, Day 182",+71%
same,Body weight change (Table 1),"[3]; dogs, 25 mg/kg bw/day, males, Day 364",+19%
same,Body weight change (Table 1),"[3]; dogs, 50 mg/kg bw/day, females, Day 4",−9%
same,Body weight change (Table 1),"[3]; dogs, 50 mg/kg bw/day, females, Day 21",−12%
same,Body weight change (Table 1),"[3]; dogs, 50 mg/kg bw/day, females, Day 182",+11%
same,Body weight change (Table 1),"[3]; dogs, 50 mg/kg bw/day, females, Day 364",+9%
same,"Body weight variation during the treatment-free period only (value in brackets, Table 1)","[3]; dogs, 50 mg/kg bw/day, females",+26% (+26%)
same,Body weight change (Table 1),"[3]; dogs, 50 mg/kg bw/day, females, Day 455 (end of treatment-free period)",+26% (+26%)
same,Body weight change (Table 1),"[3]; dogs, 50 mg/kg bw/day, males, Day 4",−9%
same,Body weight change (Table 1),"[3]; dogs, 50 mg/kg bw/day, males, Day 21",−12%
same,Body weight change (Table 1),"[3]; dogs, 50 mg/kg bw/day, males, Day 182",+7%
same,Body weight change (Table 1),"[3]; dogs, 50 mg/kg bw/day, males, Day 364",+9%
same,"Body weight variation during the treatment-free period only (value in brackets, Table 1)","[3]; dogs, 50 mg/kg bw/day, males",+6%
same,Body weight change (Table 1),"[3]; dogs, 50 mg/kg bw/day, males, Day 455 (end of treatment-free period)",+12%
same,Mean body weight gain compared to control (in words),"[3]; dogs, treated groups, days 182 and 364",lower does-relative mean body weight gain
same,Day on which weight returned to the initial weight,"[3]; female dogs, 10 mg/kg bw/day",28 days
same,Mean body weight loss,"[3]; female dogs, 10 mg/kg bw/day, first 4 days of treatment",0.4 kg
same,Day on which weight returned to the initial weight,"[3]; female dogs, 25 mg/kg bw/day",42 days
same,Mean body weight loss,"[3]; female dogs, 25 mg/kg bw/day, first 4 days of treatment",0.5 kg
same,Mean body weight loss,"[3]; female dogs, 50 mg/kg bw/day, first 4 days of treatment",0.7 kg
same,Body weight gain during the treatment-free period compared to controls (in words),[3]; group 4 females,higher body weight gain
same,Body weight gain during the treatment-free period compared to controls (in words),[3]; group 4 males,only slightly higher
same,Day on which weight returned to the initial weight,[3]; high dose female group (50 mg/kg bw/day),77 days
same,Mean body weight loss,"[3]; high dose female group (50 mg/kg bw/day), day 21",0.8 kg
same,Day on which weights returned to the initial values,[3]; high dose male group (50 mg/kg bw/day),126 days
same,Mean body weight loss,"[3]; high dose male group (50 mg/kg bw/day), day 21",0.8 kg
same,Day on which weights returned to initial weights,"[3]; male dogs, 25 mg/kg bw/day",35 days
same,Mean body weight loss,"[3]; male dogs, 25 mg/kg bw/day, first 4 days of treatment",0.3 kg
same,Mean body weight loss,"[3]; male dogs, 50 mg/kg bw/day, first 4 days of treatment",0.7 kg
same,Food consumption (in words),"[4]; all female dogs, 50 mg/kg bw/day, first week of treatment","lower food consumption, which was marked for 3/6 animals"
same,Food consumption during the treatment-free period (in words),"[4]; dogs, any animal",No effect on food consumption
same,Lower food consumption,"[4]; female dogs, 25 mg/kg bw/day, first week of treatment",−25 to −50 % of the daily portion
same,Reduced food consumption,"[4]; male dogs, 50 mg/kg bw/day, mainly first week of treatment",about −50 % of the daily portion
same,Reduced food consumption compared to control,"[4]; one male dog, 25 mg/kg bw/day, first week of treatment",about −40%
same,Slightly lower food consumption,"[4]; three out of four female dogs, 10 mg/kg bw/day, first week of treatment",about −25 % of the daily portion
same,Weight relative to placebo treated patients (in words),[5]; 6-week clinical study in major depressive disorder patients,dose-related decrease in weight relative to placebo treated patients
same,Number of subjects with a decrease in weight of 7% or more,[5]; 200-mg group,1 subjects
same,Percentage of subjects with a decrease in weight of 7% or more,[5]; 200-mg group,0.9%
same,Mean weight loss,[5]; 200-mg group,0.6 kg
same,Number of subjects with a decrease in weight of 7% or more,[5]; 400-mg group,3 subjects
same,Percentage of subjects with a decrease in weight of 7% or more,[5]; 400-mg group,2.5%
same,Mean weight loss,[5]; 400-mg group,0.9 kg
same,Mean change from baseline to endpoint in BMI,[5]; R228060 200 mg,−0.2 kg/m^2
same,Subjects with weight Decrease ≥7%,[5]; R228060 200 mg (N = 116),1 (0.9) n (%)
same,Subjects with weight Increase <7%,[5]; R228060 200 mg (N = 116),39 (33.6) n (%)
same,Subjects with weight Increase ≥7%,[5]; R228060 200 mg (N = 116),1 (0.9) n (%)
same,Subjects with weight No change/decrease <7%,[5]; R228060 200 mg (N = 116),75 (64.7) n (%)
same,"Weight, End point, Mean",[5]; R228060 200 mg group,85.4 kg
same,"Weight, End point, Median",[5]; R228060 200 mg group,83.4 kg
same,"Weight, Change from Baseline, Mean",[5]; R228060 200 mg group,-0.6 kg
same,"Weight, Change from Baseline, Median",[5]; R228060 200 mg group,-0.5 kg
same,Mean change from baseline to endpoint in BMI,[5]; R228060 400 mg,−0.3 kg/m^2
same,Subjects with weight Decrease ≥7%,[5]; R228060 400 mg (N = 120),3 (2.5) n (%)
same,Subjects with weight Increase <7%,[5]; R228060 400 mg (N = 120),27 (22.5) n (%)
same,Subjects with weight Increase ≥7%,[5]; R228060 400 mg (N = 120),0 n (%)
same,Subjects with weight No change/decrease <7%,[5]; R228060 400 mg (N = 120),90 (75.0) n (%)
same,"Weight, End point, Mean",[5]; R228060 400 mg group,83.2 kg
same,"Weight, End point, Median",[5]; R228060 400 mg group,78.9 kg
same,"Weight, Change from Baseline, Mean",[5]; R228060 400 mg group,-0.9 kg
same,"Weight, Change from Baseline, Median",[5]; R228060 400 mg group,-0.9 kg
same,Reporting of anorexia (in words),"[5]; compound-treated groups, 6-week clinical study",increase in reporting of anorexia
same,"Body weight, body weight gain and food consumption (in words)",[6],decreases in body weight and/or body weight gain as well as reductions in food consumption
same,Abuse potential: rewarding properties (in words),place preference model,no significant rewarding properties
same,Abuse potential: reinforcing properties (in words),[7],not reinforcing

# From patent US12201601B2, “Treatment for obesity” (Axsome Malta Ltd., priority 2013, dated 2025)
